Results on 27 compounds are retold here after patent US20240262819A1, “NOVEL COMPOUNDS HAVING INHIBITORY ACTIVITY AGAINST GLUCOSYLCERAMIDE SYNTHASE OR PHARMACEUTICALLY ACCEPTABLE SALT THEREOF, PROCESSES FOR PREPARING THE SAME, AND PHARMACEUTICAL COMPOSITIONS COMPRISING THE SAME” (YUHAN CORPORATION, priority 2021, published 2024).

The target in assay [1] is glucosylceramide synthase (GCS) (Homo sapiens (Human), UniProt Q16739). The assay can be described thus: Evaluation of inhibitory activities against GCS (A549 cell lysate, NBD C6-ceramide, HPLC). The format is biochemical. The gist of the method:
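GCS activity in A549 cell lysate (50 mM HEPES, pH 7.3) with NBD C6-ceramide, reacted 90 min at 37 °C. Lipids were chloroform/methanol-extracted and separated by normal-phase HPLC with fluorescence detection (ex 470/em 530 nm). GlcCer fraction of peak area was normalized between DMSO and ibiglustat, and IC50 obtained by curve fitting.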

Assay [2] concerns GM1 production in Jurkat cells. The assay is described as follows: cells. The class given is cell-based.
Where [3] appears, read: % GCS activity, A549 cell lysate, 37° C. for 90 minutes, read-out: IC50.

Read-outs that look alike come from different tables or passages of the source.

Chain of glucosylceramide synthase (GCS) (Q16739 whole entry): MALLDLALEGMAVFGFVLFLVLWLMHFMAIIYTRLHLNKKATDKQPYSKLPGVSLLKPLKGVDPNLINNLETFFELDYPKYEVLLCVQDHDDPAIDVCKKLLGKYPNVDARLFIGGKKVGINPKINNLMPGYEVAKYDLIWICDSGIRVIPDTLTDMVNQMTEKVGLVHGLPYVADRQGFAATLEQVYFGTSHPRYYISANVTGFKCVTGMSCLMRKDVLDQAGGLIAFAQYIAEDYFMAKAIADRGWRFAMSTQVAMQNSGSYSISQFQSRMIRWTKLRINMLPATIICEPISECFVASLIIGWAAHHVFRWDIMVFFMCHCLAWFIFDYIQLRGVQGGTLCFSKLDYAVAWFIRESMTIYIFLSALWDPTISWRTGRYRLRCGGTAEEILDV

With `CCOc1ccc(-c2cc3c(cc2OCC)[C@H](NC(=O)O[C@@H]2CN4CCC2CC4)C(C)(C)C3)cc1` [Example 132, (S)-quinuclidin-3-yl((R)-6-ethoxy-5-(4-ethoxyphenyl)-2,2-dimethyl-2,3-dihydro-1H-inden-1-yl)carbamate], the IC50 – broadly, the concentration that inhibits the measured activity by half – in assay [1] was found to be 1.6 nM; in assay [2] (Homo sapiens, Jurkat, 72 h), 7.62 nM.
For `COc1cc(-c2cc3c(cc2F)[C@H](NC(=O)O[C@@H]2CN4CCC2CC4)C(C)(C)C3)ccc1OC(C)C` [Example 95, (S)-quinuclidin-3-yl((R)-6-fluoro-5-(4-isopropoxy-3-methoxyphenyl)-2,2-dimethyl-2,3-dihydro-1H-inden-1-yl)carbamate], in that order: 1.14 nM and 18.2 nM.
The corresponding values for `CC(C)(C)Oc1ccc(-c2cc3c(cc2F)[C@H](NC(=O)O[C@@H]2CN4CCC2CC4)C(C)(C)C3)c(Cl)c1` [Example 102, (S)-quinuclidin-3-yl((R)-5-(4-(tert-butoxy)-2-chlorophenyl)-6-fluoro-2,2-dimethyl-2,3-dihydro-1H-inden-1-yl)carbamate] are 0.19 nM and 1.6 nM.
For `CCCCOc1cccc(-c2ccc3c(c2)CCC(C)(C)[C@H]3NC(=O)O[C@@H]2CN3CCC2CC3)c1` [Example 155, (S)-quinuclidin-3-yl((R)-6-(3-butoxyphenyl)-2,2-dimethyl-1,2,3,4-tetrahydronaphthalen-1-yl)carbamate], in that order: 0.39 nM and 0.7 nM.
`CCCCOc1cccc(-c2cc3c(cc2F)[C@H](NC(=O)O[C@@H]2CN4CCC2CC4)C(C)(C)CC3)c1` [Example 186, (S)-quinuclidin-3-yl((R)-6-(3-butoxyphenyl)-7-fluoro-2,2-dimethyl-1,2,3,4-tetrahydronaphthalen-1-yl)carbamate]: the IC50 came to 0.46 nM in assay [1] and 0.71 nM in assay [2] (Homo sapiens, Jurkat, 72 h).
The corresponding values for `CCc1ccc(-c2ccc3c(c2)CC(C)(C)[C@H]3NC(=O)O[C@@H]2CN3CCC2CC3)cc1F` [Example 33, (S)-quinuclidin-3-yl((R)-5-(4-ethyl-3-fluorophenyl)-2,2-dimethyl-2,3-dihydro-1H-inden-1-yl)carbamate] are 0.97 nM and 7.3 nM.
Regarding `CCCCc1ccc(-c2cc3c(cc2F)[C@H](NC(=O)O[C@@H]2CN4CCC2CC4)C(C)(C)CC3)cc1` [Example 173, (S)-quinuclidin-3-yl((R)-6-(4-butylphenyl)-7-fluoro-2,2-dimethyl-1,2,3,4-tetrahydronaphthalen-1-yl)carbamate], the IC50 came to 0.24 nM in assay [1] and 0.3 nM in assay [2] (Homo sapiens, Jurkat, 72 h).
As for `CC(C)Oc1cc(-c2ccc3c(c2)CC(C)(C)[C@H]3NC(=O)O[C@@H]2CN3CCC2CC3)ccc1Cl` [Example 52, (S)-quinuclidin-3-yl((R)-5-(4-chloro-3-isopropoxyphenyl)-2,2-dimethyl-2,3-dihydro-1H-inden-1-yl)carbamate], the concentration for half-maximal inhibition (IC50) in assay [1] is 8.27 nM; in assay [2] (Homo sapiens, Jurkat, 72 h), 36.7 nM.
For the compound `CCc1ccc(-c2cc3c(cc2F)[C@H](NC(=O)O[C@@H]2CN4CCC2CC4)C(C)(C)CC3)cc1` [Example 170, (S)-quinuclidin-3-yl((R)-6-(4-ethylphenyl)-7-fluoro-2,2-dimethyl-1,2,3,4-tetrahydronaphthalen-1-yl)carbamate], the half-maximal inhibitory concentration (IC50) in assay [1] amounted to 0.31 nM; in assay [2] (Homo sapiens, Jurkat, 72 h), 1.4 nM.
Take `CCOc1ccc(-c2ccc3c(c2)CCC(C)(C)[C@H]3NC(=O)O[C@@H]2CN3CCC2CC3)cc1` [Example 143, (S)-quinuclidin-3-yl((R)-6-(4-ethoxyphenyl)-2,2-dimethyl-1,2,3,4-tetrahydronaphthalen-1-yl) carbamate]: the IC50 in assay [1] (setting [3]) stood at 0.33 nM; in assay [2] (read-out: IC50) it was 4.2 nM.
On to `CCOc1cc2c(cc1-c1ccc(C(C)C)cc1)CC(C)(C)[C@H]2NC(=O)O[C@@H]1CN2CCC1CC2` [Example 129, (S)-quinuclidin-3-yl((R)-6-ethoxy-5-(4-isopropylphenyl)-2,2-dimethyl-2,3-dihydro-1H-inden-1-yl)carbamate], for which the IC50 in assay [1] was found to be 2.31 nM; in assay [2] (Homo sapiens, Jurkat, 72 h), 8.11 nM.
Turning to `CCc1ccc(-c2ccc3c(c2)CCC(C)(C)[C@H]3NC(=O)O[C@@H]2CN3CCC2CC3)cc1F` [Example 169, (S)-quinuclidin-3-yl((R)-6-(4-ethyl-3-fluorophenyl)-2,2-dimethyl-1,2,3,4-tetrahydronaphthalen-1-yl)carbamate], the IC50 in assay [1] is 0.14 nM; in assay [2] (Homo sapiens, Jurkat, 72 h) it was 1.7 nM.
The corresponding values for `CC(C)Cc1ccc(-c2cc3c(cc2F)[C@H](NC(=O)O[C@@H]2CN4CCC2CC4)C(C)(C)CC3)cc1` [Example 174, (S)-quinuclidin-3-yl((R)-7-fluoro-6-(4-isobutylphenyl)-2,2-dimethyl-1,2,3,4-tetrahydronaphthalen-1-yl)carbamate] are 0.35 nM and 0.9 nM.
The corresponding values for `CC(C)Oc1c(Cl)cc(-c2ccc3c(c2)CC(C)(C)[C@H]3NC(=O)O[C@@H]2CN3CCC2CC3)cc1Cl` [Example 40, (S)-quinuclidin-3-yl((R)-5-(3,5-dichloro-4-isopropoxyphenyl)-2,2-dimethyl-2,3-dihydro-1H-inden-1-yl)carbamate] are 3.21 nM and 1.6 nM.
The corresponding values for `CC(C)Oc1cc(Cl)cc(-c2cc3c(cc2F)[C@H](NC(=O)O[C@@H]2CN4CCC2CC4)C(C)(C)C3)c1` [Example 113, (S)-quinuclidin-3-yl((R)-5-(3-chloro-5-isopropoxyphenyl)-6-fluoro-2,2-dimethyl-2,3-dihydro-1H-inden-1-yl)carbamate] are 0.62 nM and 11.5 nM.
Turning to `CCOc1cc2c(cc1-c1ccc(OC(C)C)cc1)CC(C)(C)[C@H]2NC(=O)O[C@@H]1CN2CCC1CC2` [Example 134, (S)-quinuclidin-3-yl((R)-6-ethoxy-5-(4-isopropoxyphenyl)-2,2-dimethyl-2,3-dihydro-1H-inden-1-yl)carbamate], the IC50 in assay [1] turned out to be 0.71 nM; in assay [2] (Homo sapiens, Jurkat, 72 h), 3.8 nM.
The corresponding values for `CC(C)Oc1cc(Cl)cc(-c2ccc3c(c2)CC(C)(C)[C@H]3NC(=O)O[C@@H]2CN3CCC2CC3)c1` [Example 54, (S)-quinuclidin-3-yl((R)-5-(3-chloro-5-isopropoxyphenyl)-2,2-dimethyl-2,3-dihydro-1H-inden-1-yl)carbamate] are 0.59 nM and 8.6 nM.
For `CC(C)Cc1cccc(-c2cc3c(cc2F)[C@H](NC(=O)O[C@@H]2CN4CCC2CC4)C(C)(C)CC3)c1` [Example 189, (S)-quinuclidin-3-yl((R)-7-fluoro-6-(3-isobutylphenyl)-2,2-dimethyl-1,2,3,4-tetrahydronaphthalen-1-yl)carbamate], in that order: 1.04 nM and 6 nM.
With `CCc1ccc(-c2cc3c(cc2F)[C@H](NC(=O)O[C@@H]2CN4CCC2CC4)C(C)(C)C3)cc1F` [Example 93, (S)-quinuclidin-3-yl((R)-5-(4-ethyl-3-fluorophenyl)-6-fluoro-2,2-dimethyl-2,3-dihydro-1H-inden-1-yl)carbamate], the concentration for half-maximal inhibition (IC50) in assay [1] worked out at 0.37 nM; in assay [2] (Homo sapiens, Jurkat, 72 h), 5.6 nM.
The corresponding values for `CC(C)Cc1ccc(-c2ccc3c(c2)CCC(C)(C)[C@H]3NC(=O)O[C@@H]2CN3CCC2CC3)cc1` [Example 160, (S)-quinuclidin-3-yl((R)-6-(4-isobutylphenyl)-2,2-dimethyl-1,2,3,4-tetrahydronaphthalen-1-yl)carbamate] are 5.05 nM and 3 nM.
The corresponding values for `CCOc1c(C)cc(-c2ccc3c(c2)CCC(C)(C)[C@H]3NC(=O)O[C@@H]2CN3CCC2CC3)cc1C` [Example 164, (S)-quinuclidin-3-yl((R)-6-(4-ethoxy-3,5-dimethylphenyl)-2,2-dimethyl-1,2,3,4-tetrahydronaphthalen-1-yl)carbamate] are 1.39 nM and 8.4 nM.
With “(S)-quinuclidin-3-yl((R)-2,2-dimethyl-6-(3-propylphenyl)-1,2,3,4-tetrahydronaphthalen-1-yl) carbamate [Example 156]”, the IC50 in assay [1] (setting [3]) is 0.62 nM; in assay [2] (read-out: IC50), 1.9 nM.
On to `CCCCOc1c(C)cc(-c2ccc3c(c2)CCC(C)(C)[C@H]3NC(=O)O[C@@H]2CN3CCC2CC3)cc1C` [Example 152, (S)-quinuclidin-3-yl((R)-6-(4-butoxy-3,5-dimethylphenyl)-2,2-dimethyl-1,2,3,4-tetrahydronaphthalen-1-yl)carbamate], for which the IC50 in assay [1] came to 1.65 nM; in assay [2] (Homo sapiens, Jurkat, 72 h), 8.3 nM.
With `CC(C)COc1cc(Cl)cc(-c2ccc3c(c2)CC(C)(C)[C@H]3NC(=O)O[C@@H]2CN3CCC2CC3)c1` [Example 53, (S)-quinuclidin-3-yl((R)-5-(3-chloro-5-isobutoxyphenyl)-2,2-dimethyl-2,3-dihydro-1H-inden-1-yl)carbamate], the IC50 in assay [1] stood at 0.67 nM; in assay [2] (Homo sapiens, Jurkat, 72 h), 4.1 nM.
`CC(C)(C)Oc1ccc(-c2cc3c(cc2F)[C@H](NC(=O)O[C@@H]2CN4CCC2CC4)C(C)(C)C3)cc1` [Example 101, (S)-quinuclidin-3-yl((R)-5-(4-(tert-butoxy)phenyl)-6-fluoro-2,2-dimethyl-2,3-dihydro-1H-inden-1-yl)carbamate]: the IC50 in assay [1] came to 0.38 nM; in assay [2] (Homo sapiens, Jurkat, 72 h) it was 4.67 nM.
For `Cc1cc(-c2cc3c(cc2F)[C@H](NC(=O)O[C@@H]2CN4CCC2CC4)C(C)(C)C3)ccc1OC(C)C` [Example 94, (S)-quinuclidin-3-yl((R)-6-fluoro-5-(4-isopropoxy-3-methylphenyl)-2,2-dimethyl-2,3-dihydro-1H-inden-1-yl)carbamate], in that order: 0.52 nM and 12.1 nM.
Consider `CC(C)Oc1c(F)cc(-c2cc3c(cc2F)[C@H](NC(=O)O[C@@H]2CN4CCC2CC4)C(C)(C)C3)cc1F` [Example 97, (S)-quinuclidin-3-yl((R)-5-(3,5-difluoro-4-isopropoxyphenyl)-6-fluoro-2,2-dimethyl-2,3-dihydro-1H-inden-1-yl)carbamate], for which the IC50 in assay [1] was found to be 1.06 nM; in assay [2] (Homo sapiens, Jurkat, 72 h), 13 nM.
